From patent publication US12453696B2, “Active principle comprising a particular extract of Punica granatum and uses for preventing and/or treating acne” (priority 2020, dated 2025)

Test system: C. acnes
Test: Antibacterial activity: inhibition diameter of growth of C. acnes
Format: cell-based, Cutibacterium acnes
Conditions: for Inhibition diameter (cm): C. acnes
Text: In addition, the antibacterial activity (C. acnes) of these three products was compared according to the method described later in the present application. The inhibition diameter is proportional to the antibacterial efficacy of the product tested.
The results concerning the antibacterial effect of the active ingredient according to the invention compared to those of punicalagin, the main compound of the polyphenols present in the fruit of the pomegranate, are presented in Table 6.

O=C1O[C@H]2[C@@H]3OC(=O)c4cc(O)c(O)c(O)c4-c4c(O)c(O)c5oc(=O)c6c(c(O)c(O)c7oc(=O)c4c5c76)-c4c(cc(O)c(O)c4O)C(=O)OC[C@H]3OC(O)[C@@H]2OC(=O)c2cc(O)c(O)c(O)c2-c2c1cc(O)c(O)c2O (mixture of isomers) [Punicalagin]
antibacterial activity on growth of C. acnes (in words): has an antibacterial effect on the growth of C. acnes | Inhibition diameter (cm) (Deposit 15 μl): 1.1 ± 0.1 cm | Inhibition diameter (cm) (Deposit 30 μl): 1.4 ± 0.1 cm
